pEC50: −log10 of the molar value. Read-outs that look alike come from different tables or passages of the source. Some results are limits rather than exact numbers.

Usually pEC50 stands for −log10 of the EC50, conventionally taken in molar units.

Assay [1] concerns C. parvum Iowa isolate. Put plainly: NOD SCID gamma (NSG) mouse model of chronic cryptosporidiosis, fecal qPCR. In kind it is in vivo, NOD SCID gamma mice. The protocol: All NOD SCID gamma mouse studies were performed in compliance with animal care guidelines and were approved by the University of Vermont Institutional Animal Care and Use Committee. NOD SCID gamma mice with normal flora (NOD.Cg-Prkdc^scid Il2rg^tm1Wjl/SzJ) ([38]) were purchased from The Jackson Laboratory (Bar Harbor, ME, USA) and were housed for at least a week for acclimatization. At the age of 4 to 5 weeks, mice were infected with 10^5 C. parvum Iowa isolate oocysts. Fecal oocyst shedding is detected 6 days after infection using a quantitative PCR (qPCR assay), so treatment was started on day 7 after infection. Mice (4 per experimental group) were treated either orally (p.o.) with MMV665917 at 30 or 60 mg/kg BID, intraperitoneally (i.p.) with MMV665917 at 60 mg/kg BID, or p.o. with 1,000 mg/kg paromomycin BID. MMV665917 was suspended in DMSO, sonicated three times, for 30 s each time, to obtain a fine suspension, aliquoted, and stored at −80°C for <10 days. On the day of treatment, aliquots of MMV665917 diluted in DMSO were thawed, mixed well using a vortexer, diluted with 1% HPMC, sonicated as before (three times for 30 s each time), mixed well, and given to mice either p.o. or by i.p. injection. A final concentration of 5% DMSO was used in 100 μl of 1% HPMC per dose. For the additional Malaria Box compounds and compound variants tested, the doses were prepared in the same way, and the specific dosages tested are given in Table S3 in the supplemental material. Mice were treated for either 4 or 7 days, allowed to recover for a week, and then sacrificed. Oocyst shedding in feces was monitored throughout by qPCR, including time points while on treatment and while monitoring for relapsed infection following completion of treatment in Fig. 2A.

The subject of a further assay is C. parvum. Put plainly: Parasite persistence (time-kill) assay in HCT-8 cells. It counts as cell-based, Cryptosporidium parvum. The protocol: Excysted C. parvum oocysts were added to >90% confluent HCT-8 cells in 384-well plates. […] At ∼24 h (i.e., the time of compound addition) and at various time intervals thereafter, parasites were washed, fixed, permeabilized, stained, and imaged as for the C. parvum growth assay. For the extended-compound-exposure experiments, the medium and compound were replaced every 3 days. A separate 384-well plate was used for each time interval. Parasite numbers were normalized to host cell nucleus numbers and are expressed as the percentage of parasites per host cell nucleus. In order to fit parasite decay curves, the effect of drugs was isolated from expected changes in parasite numbers over time by expressing the number of parasites as the percentage of the number of parasites with the control, dimethyl sulfoxide (DMSO), for each time point. Exponential decay curves were fit using GraphPad Prism software, version 6.01, and curve validity was assessed using the replicates test.

For assay [2], the system named is C. parvum Iowa isolate. Put plainly: Immunofluorescence assay for C. parvum growth inhibition in HCT-8 cells. It counts as cell-based, Cryptosporidium parvum. Conditions: read-out: C. parvum EC50 (95% CI). The protocol: Inhibition of C. parvum growth was measured as described previously ([20]). Oocysts were excysted by treatment with 10 mM hydrochloric acid (10 min at 37°C), followed by exposure to 2 mM sodium taurocholate (Sigma-Aldrich) in PBS for 10 min at 16°C. Excysted oocysts were then added to >95% confluent HCT-8 cell monolayers in 384-well plates at a concentration of 5,500 Iowa isolate oocysts per well. For C. parvum field isolates, the inoculum required to yield an infection level similar to that produced by 5,500 Iowa isolate oocysts per well was determined and was used for subsequent assays of parasite inhibition. Compounds were added just before or 3 h after infection, and assay plates were incubated for 48 h postinfection at 37°C under 5% CO2. Wells were then washed three times with PBS containing 111 mM D-galactose, fixed with 4% paraformaldehyde in PBS for 15 min at room temperature, permeabilized with 0.25% Triton X-100 for 10 min at 37°C, washed three times with PBS with 0.1% Tween 20, and blocked with 4% bovine serum albumin (BSA) in PBS for 2 h at 37°C or 4°C overnight. Parasitophorous vacuoles were stained with 1.33 μg/ml of fluorescein-labeled Vicia villosa lectin (Vector Laboratories) diluted in 1% BSA in PBS with 0.1% Tween 20 for 1 h at 37°C, followed by the addition of Hoechst 33258 (AnaSpec) at a final concentration of 0.09 mM diluted in water for another 15 min at 37°C. Wells were then washed five times with PBS containing 0.1% Tween 20. A Nikon Eclipse TE2000 epifluorescence microscope with an automated stage was programmed using NIS-Elements Advanced Research software (Nikon, USA) to focus on the center of each well and take a 3-by-3 composite image using an EXi Blue fluorescence microscopy camera (QImaging, Canada) with a 20× objective (numerical aperture, 0.45). Nucleus and parasite images were exported separately as .tif files and were analyzed using macros developed on the ImageJ platform (National Institutes of Health) ([20]). The only modification from the published macro used to count parasites was that the lower size threshold for parasites was decreased from 16.5 to 4 pixels (1 pixel = 0.65 μm). Graphs were plotted, and half-maximal effective concentration (EC50) and 90% effective concentration (EC90) values were calculated using GraphPad Prism software, version 6.01. For every C. parvum field isolate experiment, a dose-response experiment against the C. parvum Iowa isolate was performed simultaneously as a reference.

The mark [3] stands for this setting: dose 100 mg/kg, interval 24 h, duration 7 days.
[4] abbreviates: dose 50 mg/kg, interval 12 h, duration 4 days.
The mark [5] stands for this setting: Cryptosporidium parvum, HCT-8, Table S1, confirmed screening hits.
The mark [6] stands for this setting: Table S1, confirmed screening hits.
[7] abbreviates: Cryptosporidium parvum, HCT-8, Table S3, SAR of MMV665917.

Take `Cc1cccc(-n2ncc3c(=O)[nH]c(-n4nc(C)cc4NC(=O)C4CCCC4)nc32)c1` [MMV403679 v3, c31c(cnn1-c2cc(ccc2)C)C(=O)NC(=N3)n4c(cc(n4)C)NC(=O)C5CCCC5]: the NSG efficacy result in the assay on C. parvum Iowa isolate [1] (setting [3]) is “No”.

On to `c1ccc(CNc2nc(NC3CCCC3)nc3ccccc23)cc1` [MMV006169 v2, C1CCC(C1)Nc1nc(NCc2ccccc2)c2c(n1)cccc2], for which, in the assay with C. parvum Iowa isolate [1] (setting [4]), the NSG efficacy entry is listed as “No”.

With `CC(=O)Oc1ccccc1C(=O)Nc1ncc([N+](=O)[O-])s1` [nitazoxanide], in the assay on C. parvum, the “parasiticidal or parasitistatic for C. parvum” value is listed as “parasitistatic”. The parasite persistence result in the assay on C. parvum (highest nontoxic concentrations, added 24 h after infection) is “parasites persist”. Also, the “short-term efficacy on oocyst shedding in NSG mice” value with C. parvum Iowa isolate [1] (Fig. 2B, dose not given) is recorded as “did not reduce oocyst shedding”.

As to `COc1ccc(Nc2nc(NCc3ccccc3Cl)c3ccccc3n2)cc1Cl` [MMV006169 v3, COc1ccc(cc1Cl)Nc1nc(NCc2ccccc2Cl)c2c(n1)cccc2], in the assay on C. parvum Iowa isolate [1] (setting [4]), the NSG efficacy result is on record as “No”.

`O=C(Nc1nc(-c2ccccn2)cs1)c1ccccc1Br` [MMV665909, Brc1ccccc1C(=O)Nc2nc(cs2)c3ccccn3]: the pEC50 with C. parvum Iowa isolate [2] (setting [5]) is 5.48. In the assay with C. parvum Iowa isolate [1] (setting [4]), the NSG efficacy result was “No”.

For the compound `Oc1c(C(Nc2ccccn2)c2cccc(Oc3ccccc3)c2)ccc2cccnc12` (stereo not drawn) [MMV665814, Oc1c(ccc2cccnc12)C(Nc3ccccn3)c4cccc(Oc5ccccc5)c4], the pEC50 in the assay with C. parvum Iowa isolate [2] (setting [5]) is 6.23. Besides, in the assay on C. parvum Iowa isolate [1] (setting [4]), the NSG efficacy result is recorded as “No”.

In the case of `Cc1cccc(-n2ncc3c(=O)[nH]c(-n4nc(C)cc4N)nc32)c1` [MMV403679 v5, c31c(cnn1-c2cc(ccc2)C)C(=O)NC(=N3)n4c(cc(n4)C)N], in the assay with C. parvum Iowa isolate [1] (setting [3]), the NSG efficacy entry is “No”.

Consider `Cc1cc(NC(=O)c2cc3ccccc3o2)n(-c2nc3c(cnn3-c3ccccc3)c(=O)[nH]2)n1` [MMV403679 v4, c31c(cnn1-c2ccccc2)C(=O)NC(=N3)n4c(cc(n4)C)NC(=O)c5oc6c(c5)cccc6], for which, in the assay with C. parvum Iowa isolate [1] (setting [3]), the NSG efficacy result is recorded as “No”.

As to `COc1cccc(C(=O)NC(c2ccc(C)cc2)c2cc(Cl)c3cccnc3c2O)c1` (stereo not drawn) [MMV665969, COc1cccc(c1)C(=O)NC(c2ccc(C)cc2)c3cc(Cl)c4cccnc4c3O], the pEC50 in the assay with C. parvum Iowa isolate [2] (setting [5]) is 7.27. In the assay with C. parvum Iowa isolate [1] (setting [4]), the NSG efficacy entry is on record as “No”.

`c1ccc(CNc2nc(Nc3ccccc3)nc3ccccc23)cc1` [MMV006169, C(Nc1nc(Nc2ccccc2)nc3ccccc13)c4ccccc4]: the negative-log EC50 (pEC50) in the assay with C. parvum Iowa isolate [2] (setting [6]) was 5.82. Moreover, in the assay on C. parvum Iowa isolate [1] (setting [4]), the NSG efficacy result is given as “No”.

As to `O=C(Nc1ccc(OC(F)(F)F)cc1)N1CCN(c2ccc3nncn3n2)CC1` [Compound D-76, FC(F)(F)Oc1ccc(cc1)NC(=O)N2CCN(CC2)c3ccc4nncn4n3], in the assay on C. parvum Iowa isolate [2] (setting [7]), the negative-log EC50 (pEC50) was < 4.60.

As to `O=S(=O)(c1ccc(Oc2ccccc2)cc1)N1CCN(c2ccc3nncn3n2)CC1` [Compound D-79, O=S(N1CCN(C2=NN3C(C=C2)=NN=C3)CC1)(C4=CC=C(OC5=CC=CC=C5)C=C4)=O], the negative logarithm of the EC50 (pEC50) in the assay on C. parvum Iowa isolate [2] (setting [7]) is 4.92.

Take `COc1ccc(C(=O)NC(c2ccc(Cl)cc2Cl)c2cc(Cl)c3cccnc3c2O)cc1` (stereo not drawn) [MMV666054, COc1ccc(cc1)C(=O)NC(c2ccc(Cl)cc2Cl)c3cc(Cl)c4cccnc4c3O]: the negative logarithm of the EC50 (pEC50) with C. parvum Iowa isolate [2] (setting [5]) is 6.09.

Regarding `COc1ccc(C(=O)Nc2cc(C)nn2-c2nc3c(cnn3-c3cccc(C)c3)c(=O)[nH]2)c(OC)c1` [MMV403679 v1, c31c(cnn1-c2cc(ccc2)C)C(=O)NC(=N3)n4c(cc(n4)C)NC(=O)c5c(cc(cc5)OC)OC], the NSG efficacy entry in the assay on C. parvum Iowa isolate [1] (setting [3]) was “No”.

Regarding `O=C(Cc1noc2ccccc12)N1CCN(c2ccc3nncn3n2)CC1` [Compound D-49, O=C(N1CCN(CC1)c1ccc2n(n1)cnn2)Cc1noc2c1cccc2], in the assay with C. parvum Iowa isolate [2] (setting [7]), the pEC50 is < 4.60.

Regarding `Cc1cccc(-n2ncc3c(=O)[nH]c(-n4nc(C)cc4NC(=O)C4CC4)nc32)c1` [MMV403679 v2, c31c(cnn1-c2cc(ccc2)C)C(=O)NC(=N3)n4c(cc(n4)C)NC(=O)C5CC5], the NSG efficacy entry in the assay with C. parvum Iowa isolate [1] (setting [3]) is recorded as “No”.

With `CSc1ccccc1C(=O)Nc1nc(-c2ccccn2)cs1` [MMV001246, CSc1ccccc1C(=O)Nc2nc(cs2)c3ccccn3], the negative-log EC50 (pEC50) in the assay on C. parvum Iowa isolate [2] (setting [5]) was 5.74. In the assay with C. parvum Iowa isolate [1] (setting [4]), the NSG efficacy entry is given as “No”.

With `CN(C)c1ccc(C(O)(c2ccc(N(C)C)cc2)c2ccc(N(C)C)cc2)cc1` [MMV665941, CN(C)c1ccc(cc1)C(O)(c2ccc(cc2)N(C)C)c3ccc(cc3)N(C)C], the pEC50 with C. parvum Iowa isolate [2] (setting [5]) was 6.08. Further, the NSG efficacy result with C. parvum Iowa isolate [1] (setting [4]) is “No”.

Turning to `CCOC(=O)N1CCN(c2ccc3nnc(C(F)(F)F)n3n2)CC1` [Compound D-4, CCOC(=O)N1CCN(CC1)c1ccc2n(n1)c(nn2)C(F)(F)F], the pEC50 in the assay with C. parvum Iowa isolate [2] (setting [7]) was < 4.60.

On to `Cc1cccc(-n2ncc3c(=O)[nH]c(-n4nc(C)cc4NC(=O)c4cc5ccccc5o4)nc32)c1` [MMV403679, c1(c(cnn1c2cccc(C)c2)C(=O)N3)N=C3n4nc(C)cc4NC(=O)c5cc(cccc6)c6o5], for which the pEC50 with C. parvum Iowa isolate [2] (setting [6]) was 6.92.

In the case of `O=C(Nc1ccc(F)c(Cl)c1)N1CCN(c2ccc3nncn3n2)CC1` [Compound D-38, O=C(N1CCN(CC1)c1ccc2n(n1)cnn2)Nc1ccc(c(c1)Cl)F], in the assay on C. parvum Iowa isolate [2] (setting [7]), the negative logarithm of the EC50 (pEC50) is 4.92.

In the case of `O=C(NC1CCCCC1)N1CCN(c2ccc3nncn3n2)CC1` [Compound D-20, O=C(N1CCN(CC1)c1ccc2n(n1)cnn2)NC1CCCCC1], in the assay with C. parvum Iowa isolate [2] (setting [7]), the pEC50 is < 4.60.

For the compound `O=C(Nc1ccc(Cl)c(Cl)c1)Nc1ccc(Cl)c(Cl)c1` [MMV665852, Clc1ccc(NC(=O)Nc2ccc(Cl)c(Cl)c2)cc1Cl], the pEC50 in the assay on C. parvum Iowa isolate [2] (setting [5]) is 5.47.

Regarding `O=C(Nc1ccc(Cl)c(Cl)c1)N1CCN(c2nc3ccccc3[nH]2)CC1` [Compound D-80, O=C(N1CCN(C2=NC3=C(C=CC=C3)N2)CC1)NC4=CC=C(Cl)C(Cl)=C4], the pEC50 with C. parvum Iowa isolate [2] (setting [7]) was 4.77.

Consider `O=C(Cc1ccccc1Cl)N1CCN(c2ccc3nncn3n2)CC1` [Compound D-42, O=C(N1CCN(CC1)c1ccc2n(n1)cnn2)Cc1ccccc1Cl], for which, in the assay on C. parvum Iowa isolate [2] (setting [7]), the negative logarithm of the EC50 (pEC50) was < 4.60.

(Values after publication PMC5913971, “A Novel Piperazine-Based Drug Lead for Cryptosporidiosis from the Medicines for Malaria Venture Open-Access Malaria Box” (Antimicrobial Agents and Chemotherapy, 2018).)
